In brackets after ≈: the same amount, converted by molar mass. Read-outs that look alike come from different tables or passages of the source.
Key:
C. glabrata = assay: Checkerboard FIC assay in combination with fluconazole (MIC alone and in combination, FICI); format: cell-based, Candida glabrata; conditions: for FICI of combination resulting in fluconazole MIC of: 2 ug/mL / FICI of combination resulting in fluconazole MIC of: 4 ug/mL / FICI of combination resulting in fluconazole MIC of: 8 ug/mL: FICI calculated using a fluconazole MIC of 16 μg/mL; for FICI of combination resulting in fluconazole MIC of: 2 ug/mL (value in parenthesis) / FICI of combination resulting in fluconazole MIC of: 4 ug/mL (value in parenthesis) / FICI of combination resulting in fluconazole MIC of: 8 ug/mL (value in parenthesis): FICI using a fluconazole MIC of 128 μg/mL; for MIC: Nakaseomyces glabratus; for Multiple of compound MIC to synergize fluconazole MIC to 2 ug/mL / Multiple of compound MIC to synergize fluconazole MIC to 4 ug/mL / Multiple of compound MIC to synergize fluconazole MIC to 8 ug/mL: concentration in combination as multiple of the compound's MIC alone; for Multiple of compound MIC to synergize fluconazole MIC to 2 ug/mL: fluconazole MIC 2 ug/mL; for Multiple of compound MIC to synergize fluconazole MIC to 4 ug/mL: fluconazole MIC 4 ug/mL; for Multiple of compound MIC to synergize fluconazole MIC to 8 ug/mL: fluconazole MIC 8 ug/mL; for Concentration of Methylgene compound to synergize fluconazole MIC to 2 ug/mL / Concentration of Methylgene compound to synergize fluconazole MIC to 4 ug/mL / Concentration of Methylgene compound to synergize fluconazole MIC to 8 ug/mL: in combination with fluconazole; for Concentration of Methylgene compound to synergize fluconazole MIC to 2 ug/mL: fluconazole MIC lowered to 2 ug/mL; for Concentration of Methylgene compound to synergize fluconazole MIC to 4 ug/mL: fluconazole MIC lowered to 4 ug/mL; for Concentration of Methylgene compound to synergize fluconazole MIC to 8 ug/mL: fluconazole MIC lowered to 8 ug/mL
In short: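 A fluconazole synergy checkerboard was run against C. glabrata in MOPS-buffered RPMI (pH 7.0) for about 48 h at 35 °C. Each agent was diluted 2-fold, with one row and one column holding each agent alone for MIC determination. FICI was calculated from these MICs, using a 0.5 McFarland inoculum diluted 1:100 per CLSI.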

Candida albicans = assay: Minimal Inhibitory Concentration (MIC) assay, broth microdilution per CLSI; format: cell-based; conditions: Candida albicans, read-out: Minimum Inhibitory Concentrations against Yeast Isolates, Candida albicans;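 also: two read times 24 hr and 48 hr of incubation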
In short: (§1)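 Steps: overnight yeast growth on Sabouraud dextrose agar at 35° C; 0.5 McFarland saline suspension diluted 1:100 in RPMI (0.165 M MOPS, pH 7.0); inoculation into twofold compound dilutions; incubation 24-48 hr at 35° C; MIC scored as lowest concentration without visible growth.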

Candida parapsilosis = assay: as above; format: cell-based; conditions: Lodderomyces parapsilosis, read-out: Minimum Inhibitory Concentrations against Yeast Isolates, Candida parapsilosis;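 also: two read times 24 hr and 48 hr of incubation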
In short: as §1

Candida glabrata = assay: as above; format: cell-based; conditions: Nakaseomyces glabratus, read-out: Minimum Inhibitory Concentrations against Yeast Isolates, Candida glabrata;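 also: two read times 24 hr and 48 hr of incubation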
In short: as §1

[1] = MIC of the example compound alone against C. glabrata in the checkerboard assay, approximately 48 hr, read-out: Methylgene MIC
[2] = test compound alone, C. glabrata, approx. 48 hr at 35° C., read-out: Compound MIC
[3] = 24 hr reading (first value of cell 24 hr/48 hr)
[4] = 48 hr reading (second value of cell 24 hr/48 hr)

Compound | FICI of combination resulting in fluconazole MIC of: 2 ug/mL (C. glabrata; C. glabrata) | FICI of combination resulting in fluconazole MIC of: 4 ug/mL (C. glabrata; C. glabrata) | FICI of combination resulting in fluconazole MIC of: 8 ug/mL (C. glabrata; C. glabrata) | FICI of combination resulting in fluconazole MIC of: 2 ug/mL (value in parenthesis) (C. glabrata; C. glabrata) | FICI of combination resulting in fluconazole MIC of: 4 ug/mL (value in parenthesis) (C. glabrata; C. glabrata) | FICI of combination resulting in fluconazole MIC of: 8 ug/mL (value in parenthesis) (C. glabrata; C. glabrata) | MIC (C. glabrata; [1]) [µg/mL] | MIC (C. glabrata; [2]) [µg/mL] | Multiple of compound MIC to synergize fluconazole MIC to 2 ug/mL (C. glabrata) | Multiple of compound MIC to synergize fluconazole MIC to 4 ug/mL (C. glabrata) | Multiple of compound MIC to synergize fluconazole MIC to 8 ug/mL (C. glabrata) | Concentration of Methylgene compound to synergize fluconazole MIC to 2 ug/mL (C. glabrata; C. glabrata) [µg/mL] | Concentration of Methylgene compound to synergize fluconazole MIC to 4 ug/mL (C. glabrata; C. glabrata) [µg/mL] | Concentration of Methylgene compound to synergize fluconazole MIC to 8 ug/mL (C. glabrata; C. glabrata) [µg/mL] | MIC (Candida albicans; [3]) [µg/mL] | MIC (Candida albicans; [4]) [µg/mL] | MIC (Candida parapsilosis; [3]) [µg/mL] | MIC (Candida parapsilosis; [4]) [µg/mL] | MIC (Candida glabrata; [3]) [µg/mL] | MIC (Candida glabrata; [4]) [µg/mL]
O=C(Cc1ccc(CCCC(F)(F)c2ccccc2)cc1)NO [Example 29, 2-(4-(4,4-difluoro-4-phenylbutyl)phenyl)-N-hydroxyacetamide] | 0.563 | 0.625 | 0.500 | 0.516 | 0.531 | 0.313 | 1 | 1 | (½x) | (½x) | (¼x) | 0.5 | 0.5 | 0.25 | 1 (≈ 3.13 µM) | 2 (≈ 6.26 µM) | 1 (≈ 3.13 µM) | 2 (≈ 6.26 µM) | 0.5 (≈ 1.57 µM) | 1 (≈ 3.13 µM)
O=C(Cc1ccc(CCCCc2ccc(O)c(O)c2)cc1)NO [Example 19, 2-(4-(4-(3,4-dihydroxyphenyl)butyl)phenyl)-N-hydroxyacetamide] | 0.313 | 0.375 | 0.500 | 0.266 | 0.281 | 0.313 | 2 | 2 | (¼x) | (¼x) | (¼x) | 0.5 | 0.5 | 0.5 | 16 (≈ 50.7 µM) | 32 (≈ 101 µM) | 32 (≈ 101 µM) | 32 (≈ 101 µM) | 1 (≈ 3.17 µM) | 2 (≈ 6.34 µM)
O=C(Cc1ccc(CCC/C(=N\O)c2ccccc2)cc1)NO [Example 27, (E)-N-hydroxy-2-(4-(4-(hydroxyimino)-4-phenylbutyl)phenyl) acetamide] | 0.313 | 0.375 | 0.375 | 0.266 | 0.281 | 0.188 | 16 | 16 | (¼x) | (¼x) | (⅛x) | 4 | 4 | 2 | 64 (≈ 205 µM) | 64 (≈ 205 µM) | > 64 | > 64 | 8 (≈ 25.6 µM) | 16 (≈ 51.2 µM)
Nc1ccccc1CCCCc1ccc(CC(=O)NO)cc1 [Example 33, 2-(4-(4-(2-aminophenyl)butyl)phenyl)-N-hydroxyacetamide] | 0.313 | 0.375 | 0.500 | 0.266 | 0.281 | 0.313 | 8 | 8 | (¼x) | (¼x) | (¼x) | 2 | 2 | 2 | 8 (≈ 26.8 µM) | 16 (≈ 53.6 µM) | 8 (≈ 26.8 µM) | 16 (≈ 53.6 µM) | 4 (≈ 13.4 µM) | 8 (≈ 26.8 µM)
O=C(Cc1ccc(CCCC(O)c2ccccc2)cc1)NO (stereo not drawn) [Example 25, N-hydroxy-2-(4-(4-hydroxy-4-phenylbutyl)phenyl)acetamide] | 0.563 | 0.375 | 0.375 | 0.516 | 0.281 | 0.188 | > 16 | > 16 |  |  |  | 16 | 8 | 4 | > 64 | > 64 | > 64 | > 64 | 16 (≈ 53.4 µM) | 64 (≈ 214 µM)
CN(C)CCSCC(=O)Nc1cccc(CCCCc2ccc(CC(=O)NO)cc2)c1 [Example 44, 2-(2-(dimethylamino)ethylthio)-N-(3-(4-(4-(2-(hydroxyamino)-2-oxoethyl)phenyl)butyl)phenyl)acetamide] | 0.188 | 0.250 | 0.313 | 0.141 | 0.156 | 0.125 | > 16 | > 16 |  |  |  | 4 | 4 | 2 | > 64 | > 64 | 64 (≈ 144 µM) | > 64 | 16 (≈ 36.1 µM) | 64 (≈ 144 µM)

Source: patent US20140081017A1, “Histone Deacetylase Inhibitors for Enhancing Activity of Antifungal Agents” (METHYLGENE INC., priority 2012, published 2014)
